How the values were obtained:
PA-1 cells = assay: Cell growth/viability (MTT, microscopy); format: cell-based, human; settings: PA-1 cells, 50 μM, 30 hours
Method: (§1) Lung, breast, ovarian, and other carcinoma cells were either obtained from American Type Culture Collection (ATCC) or from the DTP and DCTD Tumor Repository of National Cancer Institute (the NCI-60 cancer cell line panel), operated by Charles River Laboratory, Inc., as listed in Table 1. They were cultured according to instructions and treated with various concentrations of LSD1 inhibitors for 30-36 hours for mRNA analysis by quantitative real time RT-PCR or for 30-48 hours for protein analysis and the cell viability assays using Western blotting or microscopy and MTT assays as described previously (Wang, J., et al. (2011) Cancer Research 71, 7238-7249).
(§2) Alternatively, cell viability assays were conducted as previously described (Wang, J., et al. (2011) Cancer Research 71, 7238-7249). For the MTT assay, cells were seeded onto 96-well culture plates with a density of 2000-5000 cells/well, and incubated with CBB1003 or CBB1007 at various concentrations from 1 to 100 μM for 30-48 hours, depending cell growth rate. Dimethylsulfoxide (DMSO) was used as a solvent control. MTT was added to a final concentration of 0.5 mg/mL and cells were re-incubated for 4 hours. After removing the medium, 200 μL DMSO was added to dissolve formazan, followed by incubation for 10 minutes, and absorbance was measured at 490 nm by a Bio Red microplate reader. All assays were performed in triplicates for each concentration. The cell viability rate was calculated as the relative percentage of MTT absorption as follows: % cell viability=(mean experimental absorbance/mean control absorbance)×100.
(§3) Table 8 below lists activity of CBB3001 (compound 10) in Sox2-negative (ES-2) and Sox2-expressing (PA-1 and T47D) cancer cells determined in a cell-based assay as described herein (see also FIG. 3A-C).

BT-549 cells = assay: Cell growth/viability (MTT, microscopy); format: cell-based, human; settings: BT549 cells, 50 μM, 30 hours
Method: as §1, §2

HS38.T cells = assay: Cell growth/viability (MTT, microscopy); format: cell-based, human; settings: 50 μM, 30 hours
Method: as §1, §2

IGROV-1 cells = assay: Cell growth/viability (MTT, microscopy); format: cell-based, human; settings: 50 μM, 30 hours
Method: as §1, §2

MCF7 cells = assay: Cell growth/viability (MTT, microscopy); format: cell-based, human; settings: 50 μM, 30 hours
Method: as §1, §2

SK-BR-3 cells = assay: Cell growth/viability (MTT, microscopy); format: cell-based, human; settings: 50 μM, 30 hours
Method: as §1, §2

SKOV-3 cells = assay: Cell growth/viability (MTT, microscopy); format: cell-based, human; settings: 50 μM, 30 hours
Method: as §1, §2

ES-2 cells = assay: Cell growth/viability (MTT, microscopy); format: cell-based, human; settings: ES-2 cells, 50 μM, 30 hours
Method: as §1
as §2, with “For the MTT assay, cells were seeded onto 96-well culture plates with a density of 2000-5000 cells/well, and incubated with CBB1003 or CBB1007 at various concentrations from 1 to 100 μM for 30-48 hours, depending cell growth rate.” left out
as §3

A549 cells = assay: Cell growth/viability (MTT, microscopy); format: cell-based, human; settings: 50 μM, 30 hr
Method: as §1
as §2, with “absorbance)×100. […]” for “absorbance)×100.”
Referring to FIG. 5C, the percent viability of cells treated with LSD1 inhibitors or siRNAs compared with control cells, as determined by 3-(4,5-dimethylthiazol-2-yl)-2,5-diphenyltetrazolium bromide (MTT) assay is shown. […] The statistical differences between inhibitor-treated and control groups were analyzed by one-way ANOVA (scale bar=[…]; **p<0.01).

[1] = biological target: T1, recombinant HDAC1 (GST-HDAC1) (Homo sapiens, UniProt Q13547); assay: In vitro deacetylation assay, recombinant HDAC1, H4K16ac peptide; format: biochemical; settings: LSD1 and HDAC1 without CoREST
T1 construct: Human LSD1 and HDAC1 full-length cDNAs were obtained from Open Biosystems; GST (N, cleaved yes); made in house; host or cells: Escherichia coli BL21
T1 sequence (Q13547 whole entry): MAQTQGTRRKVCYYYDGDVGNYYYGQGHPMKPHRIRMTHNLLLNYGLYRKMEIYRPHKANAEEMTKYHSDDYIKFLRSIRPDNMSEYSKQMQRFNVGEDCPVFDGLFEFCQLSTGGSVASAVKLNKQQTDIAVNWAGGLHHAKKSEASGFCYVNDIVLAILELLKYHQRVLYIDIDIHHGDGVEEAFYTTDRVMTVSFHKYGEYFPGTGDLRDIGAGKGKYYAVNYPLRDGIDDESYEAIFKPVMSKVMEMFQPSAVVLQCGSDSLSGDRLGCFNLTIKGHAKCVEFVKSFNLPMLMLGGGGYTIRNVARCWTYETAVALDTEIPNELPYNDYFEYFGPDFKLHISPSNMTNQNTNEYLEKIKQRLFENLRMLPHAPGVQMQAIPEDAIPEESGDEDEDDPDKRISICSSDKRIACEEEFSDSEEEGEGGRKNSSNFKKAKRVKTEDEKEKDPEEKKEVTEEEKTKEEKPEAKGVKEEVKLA
Text: Human LSD1 and HDAC1 full-length cDNAs were obtained from Open Biosystems. […] These cDNAs were fully sequenced and cloned into the pGEX-KG or pET28a vector and expressed as the glutathione S-transferase (GST)- or His-tagged fusion proteins in the Escherichia coli BL21 strain and affinity purified with glutathione or Ni-Sepharose (GE Healthcare, United Kingdom) resin. […] The GST tag and uncut GST-HDAC1/GST-LSD1 proteins were depleted by glutathione-Sepharose. For the reconstitution reaction, recombinant GST-CoREST, His-LSD1, and recombinant HDAC1 (rHDAC1) (GST was removed by the use of PreScission protease) (10 μg) were assembled into the LSD1-CoREST-HDAC1 complex and then pulled down by GSTSepharose resins. Protein A-Sepharose was used as a negative-control resin.
The percentages of deacetylated products were analyzed by mass spectrometry, and the data were analyzed by GraphPad Prism (version 5) software.

In the case of `COC(=O)c1cc(CN2CCN(C(=N)N)CC2)cc(C(=O)N2CCN(C(=O)c3ccc(C(=N)N)cc3)CC2)c1` [CBB1007], the cell growth (PA-1 cells) is reported as “sensitive”, the cell growth (BT-549 cells) is reported as “not sensitive” and the cell growth (HS38.T cells) is reported as “not sensitive”. The cell growth (IGROV-1 cells) was “sensitive”, the cell growth (MCF7 cells) was “sensitive” and the cell growth (SK-BR-3 cells) was “not sensitive”. The cell growth (SKOV-3 cells) was “sensitive”, the cell growth (ES-2 cells) was “not sensitive” and the cell growth (A549 cells) was “specifically inhibited the growth”. For the same compound, the “HDAC1 activity in the absence of CoREST” value [1] was “not inhibited”.

— US9918983B2, “Suicidal LSD1 inhibitors targeting SOX2-expressing cancer cells” (THE BOARD OF REGENTS OF THE NEVADA SYSTEM OF HIGHER …, priority 2013, dated 2018)
